# Measured values as given in PubChem BioAssay (NCI).
#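 1) Cells in 96-well plates. 2) Compound, 48 h, 5 concentrations. 3) Linear interpolation between surrounding doses. 4) Unreached endpoint = highest concentration. GI50 marks 50% less growth. TGI: concentration producing complete growth inhibition.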
# Legend:
# Assay in all cases: inhibition of tumour cell growth, NCI panel, 48 h
# MDA-MB-231 breast = tested on: MDA-MB-231 breast
# MDA-MB-435 = tested on: MDA-MB-435
# NCI/ADR-RES ovarian = tested on: NCI/ADR-RES ovarian
# MOLT-4 leukemia = tested on: MOLT-4 leukemia
# NCI-H226 lung = tested on: NCI-H226 lung
# SR leukemia = tested on: SR leukemia
# HCT-116 colon = tested on: HCT-116 colon
# HOP-62 NSCLC = tested on: HOP-62 NSCLC
# A549 NSCLC = tested on: A549 NSCLC
# SF-268 CNS = tested on: SF-268 CNS
# BT-549 breast = tested on: BT-549 breast
# KM12 colon = tested on: KM12 colon
# OVCAR-8 ovarian = tested on: OVCAR-8 ovarian
# SK-MEL-5 melanoma = tested on: SK-MEL-5 melanoma
# HT29 colon = tested on: HT29 colon
# HCC-2998 colon = tested on: HCC-2998 colon
# UACC-62 melanoma = tested on: UACC-62 melanoma
# HS 578T breast = tested on: HS 578T breast
# COLO 205 colon = tested on: COLO 205 colon
# MCF7 breast = tested on: MCF7 breast
# U251 CNS = tested on: U251 CNS
# OVCAR-5 ovarian = tested on: OVCAR-5 ovarian
# SF-295 CNS = tested on: SF-295 CNS
# SW-620 colon = tested on: SW-620 colon
# SF-539 CNS = tested on: SF-539 CNS
# HCT-15 colon = tested on: HCT-15 colon
# ACHN renal = tested on: ACHN renal
# HL-60(TB) leukemia = tested on: HL-60(TB) leukemia
# CAKI-1 renal = tested on: CAKI-1 renal
# IGROV1 ovarian = tested on: IGROV1 ovarian
# NCI-H460 lung = tested on: NCI-H460 lung
# SNB-75 CNS = tested on: SNB-75 CNS
# UACC-257 melanoma = tested on: UACC-257 melanoma
# HOP-92 NSCLC = tested on: HOP-92 NSCLC
# EKVX NSCLC = tested on: EKVX NSCLC
# RPMI-8226 leukemia = tested on: RPMI-8226 leukemia
# SN12C renal = tested on: SN12C renal
# RXF 393 renal = tested on: RXF 393 renal
# LOX IMVI melanoma = tested on: LOX IMVI melanoma
# CCRF-CEM leukemia = tested on: CCRF-CEM leukemia
# DU-145 prostate = tested on: DU-145 prostate
# PC-3 prostate = tested on: PC-3 prostate
# M14 melanoma = tested on: M14 melanoma
# SK-MEL-2 melanoma = tested on: SK-MEL-2 melanoma
# NCI-H23 lung = tested on: NCI-H23 lung
# A498 renal = tested on: A498 renal
# TK-10 renal = tested on: TK-10 renal
# SK-OV-3 ovarian = tested on: SK-OV-3 ovarian
# SK-MEL-28 melanoma = tested on: SK-MEL-28 melanoma
# OVCAR-3 ovarian = tested on: OVCAR-3 ovarian
# NCI-H522 lung = tested on: NCI-H522 lung
# K-562 leukemia = tested on: K-562 leukemia
# T-47D breast = tested on: T-47D breast
# SNB-19 CNS = tested on: SNB-19 CNS
# OVCAR-4 ovarian = tested on: OVCAR-4 ovarian
structure (smiles),measurement,setting,value
COc1ccc(C2=NC(c3ccc(Cl)cc3)C(c3ccc(Cl)cc3)N2C(=O)N2CCNC(=O)C2)c(OC(C)C)c1 (stereo not given),GI50,MDA-MB-231 breast,1.98 µM
same,TGI,MDA-MB-231 breast,3.89 µM
same,GI50,MDA-MB-435,1.92 µM
same,TGI,MDA-MB-435,3.63 µM
same,GI50,NCI/ADR-RES ovarian,1.92 µM
same,TGI,NCI/ADR-RES ovarian,3.83 µM
same,GI50,MOLT-4 leukemia,3.39 µM
same,TGI,MOLT-4 leukemia,> 10 µM
same,GI50,NCI-H226 lung,2.08 µM
same,TGI,NCI-H226 lung,4.19 µM
same,GI50,SR leukemia,2.33 µM
same,TGI,SR leukemia,5.89 µM
same,GI50,HCT-116 colon,1.81 µM
same,TGI,HCT-116 colon,3.2 µM
same,GI50,HOP-62 NSCLC,1.9 µM
same,TGI,HOP-62 NSCLC,3.38 µM
same,GI50,A549 NSCLC,2.22 µM
same,TGI,A549 NSCLC,5.61 µM
same,GI50,SF-268 CNS,2.11 µM
same,TGI,SF-268 CNS,3.97 µM
same,GI50,BT-549 breast,2.03 µM
same,TGI,BT-549 breast,4.03 µM
same,GI50,KM12 colon,1.84 µM
same,TGI,KM12 colon,3.69 µM
same,GI50,OVCAR-8 ovarian,2.46 µM
same,TGI,OVCAR-8 ovarian,6.14 µM
same,GI50,SK-MEL-5 melanoma,1.76 µM
same,TGI,SK-MEL-5 melanoma,3.39 µM
same,GI50,HT29 colon,3.27 µM
same,TGI,HT29 colon,> 10 µM
same,GI50,HCC-2998 colon,2.3 µM
same,TGI,HCC-2998 colon,5.57 µM
same,GI50,UACC-62 melanoma,1.9 µM
same,TGI,UACC-62 melanoma,3.4 µM
same,GI50,HS 578T breast,2.65 µM
same,TGI,HS 578T breast,6.45 µM
same,GI50,COLO 205 colon,3.31 µM
same,TGI,COLO 205 colon,> 10 µM
same,GI50,MCF7 breast,2.06 µM
same,TGI,MCF7 breast,4.16 µM
same,GI50,U251 CNS,1.84 µM
same,TGI,U251 CNS,3.57 µM
same,GI50,OVCAR-5 ovarian,2.23 µM
same,TGI,OVCAR-5 ovarian,5.54 µM
same,GI50,SF-295 CNS,1.81 µM
same,TGI,SF-295 CNS,3.38 µM
same,GI50,SW-620 colon,2.41 µM
same,TGI,SW-620 colon,6.12 µM
same,GI50,SF-539 CNS,2.02 µM
same,TGI,SF-539 CNS,4.01 µM
same,GI50,HCT-15 colon,1.91 µM
same,TGI,HCT-15 colon,3.86 µM
same,GI50,ACHN renal,1.89 µM
same,TGI,ACHN renal,3.33 µM
same,GI50,HL-60(TB) leukemia,3.62 µM
same,TGI,HL-60(TB) leukemia,> 10 µM
same,GI50,CAKI-1 renal,1.8 µM
same,TGI,CAKI-1 renal,3.22 µM
same,GI50,IGROV1 ovarian,1.76 µM
same,TGI,IGROV1 ovarian,3.29 µM
same,GI50,NCI-H460 lung,1.95 µM
same,TGI,NCI-H460 lung,3.82 µM
same,GI50,SNB-75 CNS,2.37 µM
same,TGI,SNB-75 CNS,4.8 µM
same,GI50,UACC-257 melanoma,2.64 µM
same,TGI,UACC-257 melanoma,4.84 µM
same,GI50,HOP-92 NSCLC,2.1 µM
same,TGI,HOP-92 NSCLC,4.06 µM
same,GI50,EKVX NSCLC,2.08 µM
same,TGI,EKVX NSCLC,4.18 µM
same,GI50,RPMI-8226 leukemia,3.58 µM
same,TGI,RPMI-8226 leukemia,> 10 µM
same,GI50,SN12C renal,1.94 µM
same,TGI,SN12C renal,3.49 µM
same,GI50,RXF 393 renal,3.6 µM
same,TGI,RXF 393 renal,6.84 µM
same,GI50,LOX IMVI melanoma,1.78 µM
same,TGI,LOX IMVI melanoma,3.33 µM
same,GI50,CCRF-CEM leukemia,3.85 µM
same,TGI,CCRF-CEM leukemia,> 10 µM
same,GI50,DU-145 prostate,1.8 µM
same,TGI,DU-145 prostate,3.54 µM
same,GI50,PC-3 prostate,2.26 µM
same,TGI,PC-3 prostate,4.79 µM
same,GI50,M14 melanoma,1.84 µM
same,TGI,M14 melanoma,3.31 µM
same,GI50,SK-MEL-2 melanoma,2.08 µM
same,TGI,SK-MEL-2 melanoma,4.15 µM
same,GI50,NCI-H23 lung,1.83 µM
same,TGI,NCI-H23 lung,3.45 µM
same,GI50,A498 renal,1.89 µM
same,TGI,A498 renal,3.55 µM
same,GI50,TK-10 renal,1.93 µM
same,TGI,TK-10 renal,3.39 µM
same,GI50,SK-OV-3 ovarian,2.27 µM
same,TGI,SK-OV-3 ovarian,4.31 µM
same,GI50,SK-MEL-28 melanoma,3.24 µM
same,TGI,SK-MEL-28 melanoma,7.62 µM
same,GI50,OVCAR-3 ovarian,1.71 µM
same,TGI,OVCAR-3 ovarian,3.13 µM
same,GI50,NCI-H522 lung,2.09 µM
same,TGI,NCI-H522 lung,4.09 µM
same,GI50,K-562 leukemia,3.47 µM
same,TGI,K-562 leukemia,> 10 µM
same,GI50,T-47D breast,3.67 µM
same,TGI,T-47D breast,> 10 µM
same,GI50,SNB-19 CNS,2.08 µM
same,TGI,SNB-19 CNS,4.91 µM
same,GI50,OVCAR-4 ovarian,2.16 µM
same,TGI,OVCAR-4 ovarian,4.47 µM
